Measured values reported in US20250289844A1, “TREATMENT OF GM1 DEFICIENCIES” (Seneb BioSciences, Inc., priority 2022, published 2025).

Experiments:
[1] = tested on: GM3 synthase deficient mice; assay: Motor and cognitive function, ganglioside replacement therapy in GM3 synthase deficient mice; format: in vivo; conditions: 5 mg/kg IP once daily; GM3 synthase deficient mice (knock-outs and heterozygotes)
Description: FIG. 15. Motor and Cognitive function of GM3 synthase deficient mice (heterozygotes; HT and homozygotes; KO; 7-10 months old) treated with either saline (Sal) or GM1 (d18:1, C18:0) (30 mg/Kg, intraperitoneal, once daily for 3 weeks) and compared to age matched controlled wild type mice (WT). FIG. 15A. Grip Duration, FIG. 15B. Beam Transversal, and FIG. 15C. Short-term memory impairment (T-maze).
(§1) The minimum effective dose of GM1 of the invention was 5 mg/kg (IP, once daily) when administered as ganglioside replacement therapy in ganglioside deficient mice FIG. 27. […] The predicted therapeutic human dose based on allometric scaling of all animal and human data is predicted to be 2-10 mg/Kg administered daily as a parenteral (e.g., subcutaneous, intraperitoneal, intramuscular). In an exemplary embodiment, the therapeutically effective amount is from about 2 to about 10 mg per kg of body weight per dosage. In an exemplary embodiment, the dose of the GM1 formulation is administered parenterally once daily.

[2] = tested on: Huntington's disease YAC128 mice; assay: Motor function (rotarod, narrow beam) in Huntington's disease YAC128 mice; format: in vivo; conditions: Alzet pump, intracerebral ventricular injection
Description: FIG. 25. Improvement of motor function in Huntington's disease YAC128 mice after ganglioside replacement therapy using ganglioside compositions of the invention. Mice were administered GM1 using an Alzet pump and intracerebral ventricular injection. FIG. 25A. […] FIG. 25B. […] WT mice treated with GM1 (□), solid line; WT mice treated with cerebral spinal fluid (▪) hashed line; YAC128 Huntington's disease mice treated with cerebral spinal fluid (⋄) hashed line; YAC128 Huntington's disease mice treated with GM1 (♦) solid line.
In still other embodiments, gangliosides and other compounds of the invention can be used as a therapeutic to treat Huntington's disease caused by a deficiency of one or more ganglioside species, e.g., GM3, GM2 and/or GM1, FIGS. 20 and 24 (Di Pardo (2016) Front. Neurosci. 10:457). In some embodiments, the ganglioside deficiency is caused by reduced or missing enzyme activity and/or expression selected from GM3 synthase (ST3Gal5), GM2 synthase (B4GalNT1) and GM1 synthase (B3GalT4), FIG. 24 (Desplats (2007) Neurobiol. Dis. 27(3): 265-277). In another preferred embodiment, the ganglioside deficiency encompasses reduced amounts or missing ganglioside selected from GM3, GM2 and/or GM1. […]

[3] = Pharmacokinetics of formulated GM1 after subcutaneous administration; format: in vivo; conditions: Sprague Dawley rats, 30 mg/Kg, all GM1 concentrations tested
Description: (§2) FIG. 26. Solubility of GM1 of the Invention and Pharmacokinetics of different formulations of GM1 in Sprague Dawley after subcutaneous administration at a dose of 30 mg/Kg. GM1 was formulated at different GM1 concentrations from 50 mg/mL to 500 mg/mL in water or buffer with or without excipients and cosolvents.
Example 5. Pharmacokinetics of Formulated GM1. The formulated GM1 was administered, subcutaneously, to Sprague Dawley rats and the pharmacokinetics determined (FIG. 26). The plasma GM1 levels returned to normal after 72 hours for all GM1 concentrations tested.

[4] = Stability of GM1 formulations at room temperature; format: physicochemical; conditions: water or phosphate buffer 0-15 mM pH 7.0-7.4, arginine 60-100 mM, sodium chloride 0-137 mM
Description: (§3) Example 4. Formulation of GM1. Water or buffer solutions were added to GM1 and the suspension stirred until the GM1 was completely dissolved. […] Concentrations of solutions of GM1 prepared by this method included 50 mg/mL, 100 mg/mL, 200 mg/mL, 300 mg/mL, 400 mg/mL and 500 mg/mL. Formulations containing phosphate buffer 0-15 mM (pH 7.0-7.4) were also used and various excipients added including arginine (60-100 mM) and sodium chloride (0-137 mM) (FIG. 26).

[5] = Formulation / solubility of GM1 in water or buffer; format: physicochemical; conditions: 50 to 500 mg/mL
Description: as §2, §3

[6] = tested on: GM2 synthase deficient mice; assay: Minimum effective dose and motor/cognitive function, ganglioside replacement therapy in GM2 synthase deficient mice; format: in vivo
Description: FIG. 14. Motor and Cognitive function of GM2 synthase deficient mice (heterozygotes; HT and homozygotes; KO; 200-300 day old) treated with either saline (Sal) or GM1 (d18:1, C18:0) (30 mg/Kg, intraperitoneal, once daily) and compared to age matched controlled wild type mice (WT). FIG. 14A. Mouse grip strength, and FIG. 14B. Mouse cognitive function (T-maze), were assessed after 3 weeks of dosing.
FIG. 27. Minimum effective dose. Motor function of GM2 synthase deficient mice (heterozygotes; HT, 200-300 day old) treated with GM1(d18:1, C18:0) (intraperitoneal, once daily). FIG. 27A. Mouse grip strength, FIG. 27B. Adhesive removal, and FIG. 27C. Pole climbing.
as §1

[7] = vendor or literature description; cited from earlier work

time after which plasma GM1 levels returned to normal [3]: 72 h
stability of formulations [4]: stable at room temperature for months
appearance of solution [5]: clear, colorless and non-opaque solution
Compound: CCCCCCCCCCCCC/C=C/C(O)C(CO[C@@H]1O[C@H](CO)[C@@H](O[C@@H]2O[C@H](CO)[C@H](O[C@@H]3O[C@H](CO)[C@H](O)[C@H](O[C@@H]4O[C@H](CO)[C@H](O)[C@H](O)[C@H]4O)[C@H]3NC(C)=O)[C@H](O[C@]3(C(=O)O)C[C@H](O)[C@@H](NC(C)=O)[C@@H](C(O)C(O)CO)O3)[C@H]2O)[C@H](O)[C@H]1O)NC(=O)CCCCCCCCCCCCCCCCC (stereo partly drawn) [GM1, GM1 (d18:1/C18:0)]
motor and cognitive deficits [1]: reversing motor and cognitive deficits
rotarod motor function ([2]; FIG. 25A): Improved rotarod motor function
narrow beam motor function ([2]; FIG. 25B): Improved narrow beam motor function
motor and cognitive deficits ([6]; 5 mg/kg IP once daily, GM2 synthase deficient mice (knock-outs and heterozygotes)): reversing motor and cognitive deficits
minimum effective dose ([6]; IP, once daily, ganglioside replacement therapy in ganglioside deficient mice (FIG. 27: grip strength, adhesive removal, pole climbing)): 5 mg/kg
solubility in water [7]: effectively no solubility in water
